Experimental data reported in patent publication US9708314B2, “Heterocyclic amide compound” (NISSAN CHEMICAL INDUSTRIES, LTD., priority 2013, dated 2017).

Tests used:
Type in all cases: in vivo
[1] = system: Abutilon theophrasti; assay: Test Example 4: herbicidal effect by application to foliage (diluvial soil, plastic box); conditions: for M: herbicidal effect on Abutilon theophrasti / herbicidal effect, M (Abutilon theophrasti): application to foliage; for M: herbicidal effect on Abutilon theophrasti: application herbicide amount 320 g/ha
Procedure, shortened: (§1)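 Read-out is a 0–5 visual grade of herbicidal ratio (5: ≥90%, almost withered; 0: ≤5%) taken three weeks after treatment. Compound was applied as a diluted emulsion to stem and leaf parts of 14-day greenhouse-grown plants (25° C. to 30° C.) at rates expressed as g/ha.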

[2] = system: Lolium multiflorum Lam.; assay: as above; conditions: for K: herbicidal effect on Lolium multiflorum Lam. / herbicidal effect, K (Lolium multiflorum Lam.): application to foliage; for K: herbicidal effect on Lolium multiflorum Lam.: application herbicide amount 320 g/ha
Procedure, shortened: as §1

[3] = system: Apera spica-venti.; assay: as above; conditions: for L: herbicidal effect on Apera spica-venti. / herbicidal effect, L (Apera spica-venti.): application to foliage; for L: herbicidal effect on Apera spica-venti.: application herbicide amount 320 g/ha
Procedure, shortened: as §1

[4] = system: Galium spurium; assay: as above; conditions: for Q: herbicidal effect on Galium spurium / herbicidal effect, Q (Galium spurium): application to foliage; for Q: herbicidal effect on Galium spurium: application herbicide amount 320 g/ha
Procedure, shortened: as §1

[5] = system: Avena fatua; assay: as above; conditions: for I: herbicidal effect on Avena fatua / herbicidal effect, I (Avena fatua): application to foliage; for I: herbicidal effect on Avena fatua: application herbicide amount 320 g/ha
Procedure, shortened: as §1

[6] = system: Stellaria media; assay: as above; conditions: application to foliage; for herbicidal effect, P (Stellaria media): 320 g/ha
Procedure, shortened: as §1

[7] = system: Chenopodium album; assay: as above; conditions: for O: herbicidal effect on Chenopodium album: application herbicide amount 320 g/ha
Procedure, shortened: as §1

[8] = system: Alopecurus myosuroides; assay: as above; conditions: for J: herbicidal effect on Alopecurus myosuroides / herbicidal effect, J (Alopecurus myosuroides): application to foliage; for J: herbicidal effect on Alopecurus myosuroides: application herbicide amount 320 g/ha
Procedure, shortened: as §1

[9] = system: Setaria viridis; assay: as above; conditions: for G: herbicidal effect on Setaria viridis / herbicidal effect, G (Setaria viridis): application to foliage; for G: herbicidal effect on Setaria viridis: application herbicide amount 320 g/ha
Procedure, shortened: as §1

[10] = system: Amaranthus retroflexus; assay: as above; conditions: for N: herbicidal effect on Amaranthus retroflexus / herbicidal effect, N (Amaranthus retroflexus): application to foliage; for N: herbicidal effect on Amaranthus retroflexus: application herbicide amount 320 g/ha
Procedure, shortened: as §1

[11] = system: Digitaria ciliaris; assay: as above; conditions: for F: herbicidal effect on Digitaria ciliaris / herbicidal effect, F (Digitaria ciliaris): application to foliage; for F: herbicidal effect on Digitaria ciliaris: application herbicide amount 320 g/ha
Procedure, shortened: as §1

[12] = system: Echinochloa crus-galli var. crus-galli; assay: as above; conditions: for H: herbicidal effect on Echinochloa crus-galli var. crus-galli / herbicidal effect, H (Echinochloa crus-galli var. crus-galli): application to foliage; for H: herbicidal effect on Echinochloa crus-galli var. crus-galli: application herbicide amount 320 g/ha
Procedure, shortened: as §1

[13] = system: Veronica persica; assay: as above; conditions: for R: herbicidal effect on Veronica persica / herbicidal effect, R (Veronica persica): application to foliage; for R: herbicidal effect on Veronica persica: application herbicide amount 320 g/ha
Procedure, shortened: as §1

[14] = system: Leptochloa chinensis; assay: Test Example 3: herbicidal effect by application to foliage (Wagner pot, water depth 0.1-0.5 cm); conditions: Nineteenth Table; application to foliage; application herbicide amount 320 g/ha
Procedure, shortened: (§2)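 Seeds were sown in alluvial soil in Wagner pots, grown for 14 days at 25–30 °C, then sprayed uniformly on foliage with the emulsified compound diluted to a given rate per hectare. Injury was graded three weeks after treatment from 0 (≤5%) to 5 (≥90%).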

[15] = system: Cyperus difformis; assay: as above; conditions: Nineteenth Table; application to foliage; application herbicide amount 320 g/ha
Procedure, shortened: as §2

[16] = system: Echinochloa crus-galli var. crus-galli; assay: as above; conditions: Nineteenth Table; application to foliage; application herbicide amount 320 g/ha
Procedure, shortened: as §2

[17] = system: directly sowed Oryza sativa; assay: Test Example 3: effect on crop by application to foliage (Wagner pot, water depth 0.1-0.5 cm); conditions: Nineteenth Table; application to foliage; application herbicide amount 320 g/ha
Procedure, shortened: as §2

| Compound | M: herbicidal effect on Abutilon theophrasti [1] | K: herbicidal effect on Lolium multiflorum Lam. [2] | L: herbicidal effect on Apera spica-venti. [3] | Q: herbicidal effect on Galium spurium [4] | I: herbicidal effect on Avena fatua [5] | O: herbicidal effect on Chenopodium album ([7]; application to foliage) | J: herbicidal effect on Alopecurus myosuroides [8] | G: herbicidal effect on Setaria viridis [9] | N: herbicidal effect on Amaranthus retroflexus [10] | F: herbicidal effect on Digitaria ciliaris [11] | H: herbicidal effect on Echinochloa crus-galli var. crus-galli [12] | R: herbicidal effect on Veronica persica [13] | D (herbicidal effect grade) [14] | E (herbicidal effect grade) [15] | H (herbicidal effect grade) [16] | herbicidal effect, M (Abutilon theophrasti) ([1]; 320 g/ha) | herbicidal effect, K (Lolium multiflorum Lam.) ([2]; 320 g/ha) | herbicidal effect, L (Apera spica-venti.) ([3]; 320 g/ha) | herbicidal effect, Q (Galium spurium) ([4]; 320 g/ha) | herbicidal effect, I (Avena fatua) ([5]; 320 g/ha) | other results |
| --- | --- | --- | --- | --- | --- | --- | --- | --- | --- | --- | --- | --- | --- | --- | --- | --- | --- | --- | --- | --- | --- |
| Cc1nnc(NC(=O)c2ccc(C(F)(F)F)n3c(SC4CCCC4)nnc23)o1 [1-154] | 2 (Herbicidal ratio of 20% or more and less than 40%) | 0 (Herbicidal ratio of 5% or less (almost no effect)) | 0 (Herbicidal ratio of 5% or less (almost no effect)) | 0 (Herbicidal ratio of 5% or less (almost no effect)) | 0 (Herbicidal ratio of 5% or less (almost no effect)) | 5 (Herbicidal ratio of 90% or more (almost completely withered)) | 0 (Herbicidal ratio of 5% or less (almost no effect)) | 2 (Herbicidal ratio of 20% or more and less than 40%) | 2 (Herbicidal ratio of 20% or more and less than 40%) | 3 (Herbicidal ratio of 40% or more and less than 70%) | 3 (Herbicidal ratio of 40% or more and less than 70%) | 0 (Herbicidal ratio of 5% or less (almost no effect)) | 2 (Herbicidal ratio of 20% or more and less than 40%) | 4 (Herbicidal ratio of 70% or more and less than 90%) | 3 (Herbicidal ratio of 40% or more and less than 70%) |  |  |  |  |  | P: herbicidal effect on Stellaria media ([6]; application herbicide amount 320 g/ha): 4 (Herbicidal ratio of 70% or more and less than 90%) |
| O=C(Nc1nnco1)c1ccc(C(F)(F)F)n2c(SC3CCCC3)nnc12 [1-155] | 3 (Herbicidal ratio of 40% or more and less than 70%) | 0 (Herbicidal ratio of 5% or less (almost no effect)) | 0 (Herbicidal ratio of 5% or less (almost no effect)) | 0 (Herbicidal ratio of 5% or less (almost no effect)) | 0 (Herbicidal ratio of 5% or less (almost no effect)) | 5 (Herbicidal ratio of 90% or more (almost completely withered)) | 0 (Herbicidal ratio of 5% or less (almost no effect)) | 1 (Herbicidal ratio of 5% or more and less than 20%) | 3 (Herbicidal ratio of 40% or more and less than 70%) | 3 (Herbicidal ratio of 40% or more and less than 70%) | 3 (Herbicidal ratio of 40% or more and less than 70%) | 2 (Herbicidal ratio of 20% or more and less than 40%) | 2 (Herbicidal ratio of 20% or more and less than 40%) | 5 (Herbicidal ratio of 90% or more (almost completely withered)) | 1 (Herbicidal ratio of 5% or more and less than 20%) |  |  |  |  |  |  |
| O=C(Nc1nnco1)c1ccc(C(F)(F)F)n2c(SCc3ccc(Cl)nc3)nnc12 [1-157] | 3 (Herbicidal ratio of 40% or more and less than 70%) | 1 (Herbicidal ratio of 5% or more and less than 20%) | 1 (Herbicidal ratio of 5% or more and less than 20%) | 1 (Herbicidal ratio of 5% or more and less than 20%) | 1 (Herbicidal ratio of 5% or more and less than 20%) | 5 (Herbicidal ratio of 90% or more (almost completely withered)) | 1 (Herbicidal ratio of 5% or more and less than 20%) | 1 (Herbicidal ratio of 5% or more and less than 20%) | 3 (Herbicidal ratio of 40% or more and less than 70%) | 3 (Herbicidal ratio of 40% or more and less than 70%) | 3 (Herbicidal ratio of 40% or more and less than 70%) | 2 (Herbicidal ratio of 20% or more and less than 40%) | 3 (Herbicidal ratio of 40% or more and less than 70%) | 4 (Herbicidal ratio of 70% or more and less than 90%) | 4 (Herbicidal ratio of 70% or more and less than 90%) |  |  |  |  |  |  |
| CC(C)c1nnc2c(C(=O)Nc3nnnn3C)ccc(C(F)(F)C(F)(F)F)n12 [2-049] |  |  |  |  |  |  |  |  |  |  |  |  | 5 (Herbicidal ratio of 90% or more (almost completely withered)) | 5 (Herbicidal ratio of 90% or more (almost completely withered)) | 5 (Herbicidal ratio of 90% or more (almost completely withered)) |  |  |  |  |  | M (Abutilon theophrasti) herbicidal effect grade ([1]; foliage application, 320 g/ha): 4 (Herbicidal ratio of 70% or more and less than 90%); K (Lolium multiflorum Lam.) herbicidal effect grade ([2]; foliage application, 320 g/ha): 3 (Herbicidal ratio of 40% or more and less than 70%); L (Apera spica-venti.) herbicidal effect grade ([3]; foliage application, 320 g/ha): 4 (Herbicidal ratio of 70% or more and less than 90%); Q (Galium spurium) herbicidal effect grade ([4]; foliage application, 320 g/ha): 3 (Herbicidal ratio of 40% or more and less than 70%); I (Avena fatua) herbicidal effect grade ([5]; foliage application, 320 g/ha): 3 (Herbicidal ratio of 40% or more and less than 70%); O (Chenopodium album) herbicidal effect grade ([7]; foliage application, 320 g/ha): 5 (Herbicidal ratio of 90% or more (almost completely withered)); J (Alopecurus myosuroides) herbicidal effect grade ([8]; foliage application, 320 g/ha): 1 (Herbicidal ratio of 5% or more and less than 20%); G (Setaria viridis) herbicidal effect grade ([9]; foliage application, 320 g/ha): 5 (Herbicidal ratio of 90% or more (almost completely withered)); N (Amaranthus retroflexus) herbicidal effect grade ([10]; foliage application, 320 g/ha): 3 (Herbicidal ratio of 40% or more and less than 70%); F (Digitaria ciliaris) herbicidal effect grade ([11]; foliage application, 320 g/ha): 5 (Herbicidal ratio of 90% or more (almost completely withered)); H (Echinochloa crus-galli var. crus-galli) herbicidal effect grade ([12]; foliage application, 320 g/ha): 5 (Herbicidal ratio of 90% or more (almost completely withered)); R (Veronica persica) herbicidal effect grade ([13]; foliage application, 320 g/ha): 4 (Herbicidal ratio of 70% or more and less than 90%); b (effect on crop grade) [17]: 1 (Herbicidal ratio of 5% or more and less than 20%) |
| CCCn1nnnc1NC(=O)c1ccc(C(F)(F)F)n2c(C(C)C)nnc12 [2-090] |  |  |  |  |  |  |  |  |  |  |  |  | 4 (Herbicidal ratio of 70% or more and less than 90%) | 5 (Herbicidal ratio of 90% or more (almost completely withered)) | 5 (Herbicidal ratio of 90% or more (almost completely withered)) | 3 (Herbicidal ratio of 40% or more and less than 70%) | 4 (Herbicidal ratio of 70% or more and less than 90%) | 4 (Herbicidal ratio of 70% or more and less than 90%) | 4 (Herbicidal ratio of 70% or more and less than 90%) | 4 (Herbicidal ratio of 70% or more and less than 90%) | herbicidal effect, P (Stellaria media) [6]: 5 (Herbicidal ratio of 90% or more (almost completely withered)); herbicidal effect, J (Alopecurus myosuroides) ([8]; 320 g/ha): 3 (Herbicidal ratio of 40% or more and less than 70%); herbicidal effect, G (Setaria viridis) ([9]; 320 g/ha): 4 (Herbicidal ratio of 70% or more and less than 90%); herbicidal effect, N (Amaranthus retroflexus) ([10]; 320 g/ha): 4 (Herbicidal ratio of 70% or more and less than 90%); herbicidal effect, F (Digitaria ciliaris) ([11]; 320 g/ha): 5 (Herbicidal ratio of 90% or more (almost completely withered)); herbicidal effect, H (Echinochloa crus-galli var. crus-galli) ([12]; 320 g/ha): 5 (Herbicidal ratio of 90% or more (almost completely withered)); herbicidal effect, R (Veronica persica) ([13]; 320 g/ha): 3 (Herbicidal ratio of 40% or more and less than 70%) |
| Cc1nnc(NC(=O)c2ccc(C(F)(F)F)n3nc(C(C)C)nc23)o1 [7-001] |  |  |  |  |  |  |  |  |  |  |  |  | 2 (Herbicidal ratio of 20% or more and less than 40%) |  | 1 (Herbicidal ratio of 5% or more and less than 20%) | 1 (Herbicidal ratio of 5% or more and less than 20%) | 0 (Herbicidal ratio of 5% or less (almost no effect)) | 0 (Herbicidal ratio of 5% or less (almost no effect)) | 0 (Herbicidal ratio of 5% or less (almost no effect)) | 0 (Herbicidal ratio of 5% or less (almost no effect)) | herbicidal effect, P (Stellaria media) [6]: 1 (Herbicidal ratio of 5% or more and less than 20%); herbicidal effect, O (Chenopodium album) ([7]; application to foliage, 320 g/ha): 2 (Herbicidal ratio of 20% or more and less than 40%); herbicidal effect, J (Alopecurus myosuroides) ([8]; 320 g/ha): 0 (Herbicidal ratio of 5% or less (almost no effect)); herbicidal effect, G (Setaria viridis) ([9]; 320 g/ha): 0 (Herbicidal ratio of 5% or less (almost no effect)); herbicidal effect, N (Amaranthus retroflexus) ([10]; 320 g/ha): 0 (Herbicidal ratio of 5% or less (almost no effect)); herbicidal effect, F (Digitaria ciliaris) ([11]; 320 g/ha): 0 (Herbicidal ratio of 5% or less (almost no effect)); herbicidal effect, H (Echinochloa crus-galli var. crus-galli) ([12]; 320 g/ha): 1 (Herbicidal ratio of 5% or more and less than 20%); herbicidal effect, R (Veronica persica) ([13]; 320 g/ha): 0 (Herbicidal ratio of 5% or less (almost no effect)) |
